Laboratory results as given in patent US20110039763A1, “TARGETED ANTIMICROBIAL MOIETIES” (C3 JIAN, INC., priority 2009, published 2011).
Entries after “also recorded” stand apart in the source; their conditions may differ.

Tests used:
microorganisms [1] = assay: Peptide activities: targeting/binding, antimicrobial, growth or phenotype altering (Tables 7, 8); type: cell-based; settings: peptides having multiple activities
microorganisms [2] = assay: Targeting peptide binding to target microorganisms (Tables 3, 10, 12); settings: microorganism(s) the targeting peptide binds; binding in aqueous buffers varied with peptide solubility, preferably 1x PBS
microorganisms [3] = assay: Morphology, biofilm and growth disrupting peptides (Table 5); type: cell-based; set-up: key: A: Peptide aggregates; B: Less hyphal formation; Clumps; Diffuse clumps and small polyps; F: Diffuse growth; H: Thin; I: Growth inhibition; Microcolony formation; Rippled; Small polyps; Thick; W: Halo formation on top, microlonies on bottom
Source text: In certain embodiments peptides that induce alterations in phenotype or other biological activities can also be used as antimicrobial effector moieties.

| Substance | Activities (microorganisms [1]) | Target(s) (microorganisms [2]) | Organism, effect: C. jeikeium (microorganisms [3]) | Organism, effect: S. pneumoniae (microorganisms [3]) | Organism, effect: MRSA (microorganisms [3]) | Organism, effect: S. epidermidis (microorganisms [3]) | Organism, effect: B. subtilis (microorganisms [3]; B. subtilis) | Organism, effect: C. jejuni (microorganisms [3]; C. jejuni) | Organism, effect: M. luteus (microorganisms [3]; M. luteus) |
| --- | --- | --- | --- | --- | --- | --- | --- | --- | --- |
| PF-133: peptide having multiple activities (chain 1 GDPTAGQKPVECP; chain 2 GDPTAGQKPVECP; Peptide with targeting and/or antimicrobial activity) | G B | S. epidermidis; also recorded: C. jeikeium; also recorded: C. jejuni; also recorded: M. smegmatis | C. jeikeium (R) |  |  |  |  |  |  |
| PF-135: peptide having multiple activities (chain 1 PPARPARIPQTPTLHGASLFRQRS; chain 2 PPARPARIPQTPTLHGASLFRQRS; Peptide with targeting and/or antimicrobial activity) | G B | S. epidermidis and M. luteus and E. coli and P. aeruginosa and MRSA and C. jeikeium and M. smegmatis | C. jeikeium (R) |  |  |  |  |  |  |
| PF-144: peptide having multiple activities (chain 1 RSGQPVGRPSRRAWLR; chain 2 RSGQPVGRPSRRAWLR; Peptide with targeting and/or antimicrobial activity) | G B | S. epidermidis and M. luteus and E. coli and C. albicans and MRSA and S. pneumoniae and E. faecalis and C. jeikeium |  | S. pneumoniae (H) |  |  |  |  |  |
| PF-149: peptide having multiple activities (chain 1 GKVSVLTRVPRSLGGAPANQ; chain 2 GKVSVLTRVPRSLGGAPANQ; Peptide with targeting and/or antimicrobial activity) | G B | S. epidermidis and M. luteus and E. coli and MRSA and C. jeikeium |  |  | MRSA (H) |  |  |  |  |
| PF-153: peptide having multiple activities (chain 1 GILARADCSQIA; chain 2 GILARADCSQIA; Peptide with targeting and/or antimicrobial activity) | G B | M. luteus and P. mirabilis and E. coli and MRSA | C. jeikeium (C) |  |  | S. epidermidis (M) |  |  |  |
| PF-156: peptide having multiple activities (LITAEQPATAPIAGK; Peptide with targeting and/or antimicrobial activity) | G B | S. epidermidis; also recorded: C. jeikeium |  |  | MRSA (H) |  |  |  |  |
| PF-164: peptide having multiple activities (EEVSRALAGIGLGLGCRIG; Peptide with targeting and/or antimicrobial activity) | G B | S. epidermidis; also recorded: M. luteus; also recorded: E. coli; also recorded: C. jeikeium | C. jeikeium (R) |  |  |  |  |  |  |
| PF-171: peptide having multiple activities (TQVTLCRTW; Peptide with targeting and/or antimicrobial activity) | G B | S. epidermidis; also recorded: E. coli; also recorded: P. aeruginosa; also recorded: S. pneumoniae |  | S. pneumoniae (D) | MRSA (M) | S. epidermidis (R) | B. subtilis (D) | C. jejuni (R) | M. luteus (R) |
| PF-173: peptide having multiple activities (AGRTAIVQGGG; Peptide with targeting and/or antimicrobial activity) | G B | S. epidermidis; also recorded: M. luteus; also recorded: P. mirabilis; also recorded: E. coli; also recorded: P. aeruginosa; also recorded: C. albicans; also recorded: C. jeikeium; also recorded: C. jejuni | C. jeikeium (D) |  |  | S. epidermidis (A) |  |  |  |
